Test results: patent US20060182775A1, “Insect repellent” (priority 2005, published 2006)

Columns and labels:
[1] = cited from earlier work
[2] = human, in vivo

| Compound | absorption through the skin ([1]; in vivo) | effect on the nervous system ([1]; in vivo) | seizures and death ([1]; some individuals) | burning and/or irritation of skin [2] |
| --- | --- | --- | --- | --- |
| CCN(CC)C(=O)c1cccc(C)c1 [DEET, n,n-diethyl-m-toluamide] | readily absorbed through the skin and enters into the blood stream | adversely affect the nervous system | caused seizures and even death in some individuals |  |
| citronella oil |  |  |  | caused burning and/or irritation |
